Experimental data as given in patent publication US10905761B2, “Use of a lipopeptide or lipoprotein as an adjuvant in therapeutic or prophylactic vaccinations” (HELMHOLTZ-ZENTRUM FUER INFEKTIONSFORSCHUNG GMBH, priority 2002, dated 2021).
No end group written: not given here.

System: BALB/c (H-2d) mice
Experiment: Cellular responses (spleen cell proliferation) after immunization with different MALP-2 doses (Example 3)
Assay type: in vivo
Conditions: 1 μg MALP-2; spleen cells restimulated with β-galactosidase; day 28
Protocol: β-Galactosidase-specific T-cell proliferation responses of mouse spleen cells immunized by the i.p. or i.n. routes with either pure β-galactosidase (40 μg/dose) or β-galactosidase mixed with MAPL-2 (1 or 0.5 μg/dose) on days 0, 7 and 14. On day 28 after the primary immunization, the animals were sacrificed and the spleen cells were restimulated in vitro in the presence of 20 μg/ml soluble β-galactosidase for four days. The results are shown as stimulation indices (cpm of samples/cpm in unstimulated control cells).
Six- to eight-week old female BALB/c (H-2d) mice were purchased from Harlan Winkelmann GmbH (Borchen, Germany) and treated in accordance with local and EU directives. Groups each of 5 mice were immunized on day 1, 7 and 14 either with 40 μg of pure β-galactosidase (Boehringer, Mannheim, Germany), or with admixture of 1 or 0.5 μg of synthetic MALP-2. For the intranasal administration (i.n.), 10 μl was administered into each nostril, while for the i.p. injection β-galactosidase was resuspended with or without MALP-2 in 400 μl of PBS. […] The cells were then harvested on filter paper (Filtermat A; Wallac, Freiburg, Germany) with a cell harvester (Inotech, Wohlen, Switzerland), and the amount of [H]thymidine incorporated into the DNA of the proliferated cells was determined with the aid of a […] scintillation counter (Wallac 1450, Micro-Trilux). […]

Substance: S-[2,3-bispalmitoyloxypropyl]cysteinyl-GNNDESNISFKEK ({S‑(2,3-bispalmitoyloxypropyl)Cys}-GNNDESNISFKEK) [MALP-2]
- cell-mediated immunization (spleen cell proliferation) at higher dose: cell-mediated immunization is reduced
